# Source: ChEMBL document CHEMBL5346940, “Design, synthesis and biological evaluation of dual Topo II/HDAC inhibitors bearing pyrimido[5,4-b]indole and pyrazolo[3,4-d]pyrimidine motifs” (Eur J Med Chem, 2023)
# Calls of active or inactive are those of the source. No cut-off for these calls is given here.
# Assays:
# [1] = test system: NIH3T3; test: Antiproliferative activity against mouse 3T3 cells assessed as reduction in cell viability at 100 uM measured for 48 hrs by MTT assay relative to control; type: toxicity, cell-based; details: nih3t3, 48 h
# [2] = target: T1, DNA topoisomerase 1 (Homo sapiens) (UniProt P11387); test: Inhibition of human topoisomerase 1 assessed as relaxation of pBR322 plasmid DNA at 100 uM measured after 30 mins by agarose gel electrophoresis analysis
# T1 sequence (whole entry): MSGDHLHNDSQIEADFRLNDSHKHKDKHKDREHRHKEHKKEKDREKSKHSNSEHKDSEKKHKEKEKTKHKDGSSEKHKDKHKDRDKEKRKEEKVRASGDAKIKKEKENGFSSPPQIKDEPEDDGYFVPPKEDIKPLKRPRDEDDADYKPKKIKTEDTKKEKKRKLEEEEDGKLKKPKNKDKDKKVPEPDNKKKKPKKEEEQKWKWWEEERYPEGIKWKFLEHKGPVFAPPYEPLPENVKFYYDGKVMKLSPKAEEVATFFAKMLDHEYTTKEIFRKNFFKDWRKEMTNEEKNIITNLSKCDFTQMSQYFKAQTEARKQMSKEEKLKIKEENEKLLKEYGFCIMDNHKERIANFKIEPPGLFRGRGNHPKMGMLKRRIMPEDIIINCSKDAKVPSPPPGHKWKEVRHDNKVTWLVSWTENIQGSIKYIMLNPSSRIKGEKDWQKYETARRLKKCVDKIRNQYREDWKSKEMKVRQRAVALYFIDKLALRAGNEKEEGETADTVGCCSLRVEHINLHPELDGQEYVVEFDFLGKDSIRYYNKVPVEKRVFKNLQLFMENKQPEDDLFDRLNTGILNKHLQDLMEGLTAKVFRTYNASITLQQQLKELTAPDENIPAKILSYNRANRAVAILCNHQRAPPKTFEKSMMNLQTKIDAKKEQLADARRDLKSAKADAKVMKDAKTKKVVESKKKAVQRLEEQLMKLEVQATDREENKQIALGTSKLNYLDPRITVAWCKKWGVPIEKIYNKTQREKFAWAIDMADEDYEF
# [3] = test system: MGC-803; test: Antiproliferative activity against human MGC-803 cells assessed as reduction in cell viability measured for 48 hrs by MTT assay; type: functional, cell-based; details: MGC-803, 48 h
# [4] = test system: U-937; test: Antiproliferative activity against human U-937 cells assessed as reduction in cell viability measured for 48 hrs by MTT assay; type: functional, cell-based; details: U-937, 48 h
# [5] = test system: MCF7; test: Antiproliferative activity against human MCF7 cells assessed as reduction in cell viability measured for 48 hrs by MTT assay; type: functional, cell-based; details: MCF7, 48 h
# [6] = target: DNA topoisomerase 2-alpha (Homo sapiens) (UniProt P11388); test: Inhibition of human topoisomerase 2 assessed as relaxation of pBR322 plasmid DNA at 100 uM measured after 30 mins by ethidium bromide staining based UV transilluminator analysis
# Chain of DNA topoisomerase 2-alpha (Homo sapiens) (P11388 whole entry): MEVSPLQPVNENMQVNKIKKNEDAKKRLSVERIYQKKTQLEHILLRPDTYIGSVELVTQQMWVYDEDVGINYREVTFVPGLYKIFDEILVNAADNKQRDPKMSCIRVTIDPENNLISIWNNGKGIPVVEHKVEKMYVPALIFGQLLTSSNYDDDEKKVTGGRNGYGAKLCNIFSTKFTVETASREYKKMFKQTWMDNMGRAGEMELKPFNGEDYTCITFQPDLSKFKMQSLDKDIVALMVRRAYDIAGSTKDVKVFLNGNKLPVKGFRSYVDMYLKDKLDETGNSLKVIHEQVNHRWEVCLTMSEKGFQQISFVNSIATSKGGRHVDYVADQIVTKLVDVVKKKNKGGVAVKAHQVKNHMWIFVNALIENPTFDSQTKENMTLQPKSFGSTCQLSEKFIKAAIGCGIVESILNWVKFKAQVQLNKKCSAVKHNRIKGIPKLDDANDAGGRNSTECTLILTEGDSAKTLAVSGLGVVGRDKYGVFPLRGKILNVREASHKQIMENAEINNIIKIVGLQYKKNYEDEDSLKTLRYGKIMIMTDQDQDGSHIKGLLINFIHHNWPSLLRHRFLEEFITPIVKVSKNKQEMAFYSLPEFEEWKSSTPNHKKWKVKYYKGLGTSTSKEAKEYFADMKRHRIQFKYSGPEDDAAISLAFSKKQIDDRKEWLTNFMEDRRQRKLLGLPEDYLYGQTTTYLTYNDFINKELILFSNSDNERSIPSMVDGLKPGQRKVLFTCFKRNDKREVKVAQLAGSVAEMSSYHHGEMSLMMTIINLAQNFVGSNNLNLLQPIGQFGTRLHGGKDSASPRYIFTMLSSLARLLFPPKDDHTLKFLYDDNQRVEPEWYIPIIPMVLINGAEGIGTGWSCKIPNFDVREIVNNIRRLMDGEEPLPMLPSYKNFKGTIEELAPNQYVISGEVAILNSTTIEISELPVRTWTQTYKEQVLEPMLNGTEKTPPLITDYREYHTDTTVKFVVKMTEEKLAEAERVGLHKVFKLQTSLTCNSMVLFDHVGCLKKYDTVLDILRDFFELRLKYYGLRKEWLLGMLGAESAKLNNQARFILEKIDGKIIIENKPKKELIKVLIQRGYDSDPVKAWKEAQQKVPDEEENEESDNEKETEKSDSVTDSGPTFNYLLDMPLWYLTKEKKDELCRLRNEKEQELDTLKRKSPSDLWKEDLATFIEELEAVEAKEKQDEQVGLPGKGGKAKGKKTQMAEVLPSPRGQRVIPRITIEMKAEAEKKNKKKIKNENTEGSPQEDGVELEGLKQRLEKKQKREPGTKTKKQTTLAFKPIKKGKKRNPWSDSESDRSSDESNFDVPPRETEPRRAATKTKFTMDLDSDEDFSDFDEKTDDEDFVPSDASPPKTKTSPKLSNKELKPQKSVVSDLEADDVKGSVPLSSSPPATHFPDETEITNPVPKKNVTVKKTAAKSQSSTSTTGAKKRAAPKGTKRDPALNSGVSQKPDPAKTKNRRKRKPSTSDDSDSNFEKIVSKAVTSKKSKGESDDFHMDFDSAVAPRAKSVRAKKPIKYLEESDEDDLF
# [7] = target: Histone deacetylase; test: Inhibition of HDAC in human HeLa nuclear extract measured after 30 mins by fluorescence based assay; type: cell-free
# [8] = test system: MCF7; test: Induction of apoptosis in human MCF7 cells assessed as late apoptotic cells at 10 uM incubated for 48 hrs by AnnexinV-FITC/propidium iodide staining based flow cytometry analysis (reference value: 0.015 %); type: functional
# [9] = test system: MCF7; test: Induction of apoptosis in human MCF7 cells assessed as viable cells at 10 uM incubated for 48 hrs by AnnexinV-FITC/propidium iodide staining based flow cytometry analysis (reference value: 99.2 %); type: functional; details: read-out: Activity
# [10] = test system: MCF7; test: Induction of apoptosis in human MCF7 cells assessed as early apoptotic cells at 10 uM incubated for 48 hrs by AnnexinV-FITC/propidium iodide staining based flow cytometry analysis (reference value: 0.28 %); type: functional
# [11] = test system: MCF7; test: Induction of apoptosis in human MCF7 cells assessed as necrotic cells at 10 uM incubated for 48 hrs by AnnexinV-FITC/propidium iodide staining based flow cytometry analysis (reference value: 0.55 %); type: functional
# [12] = test system: MCF7; test: cells; type: functional; details: Homo sapiens, time 48 hrs
# Description: Inhibition of cell migration in human MCF7 cells assessed as reduction in cell migration at 1 uM measured for 48 hrs by wound healing assay based microscopic analysis (Rvb = 70.25%)
# [13] = target: DNA topoisomerase 2-alpha (Homo sapiens) (UniProt P11388); test: Poison activity at human topoisomerase 2 assessed as stabilization of enzyme-DNA cleavage complex by measuring linear DNA formation at 100 uM incubated for 6 mins by EtBr staining based UV light analysis
# [14] = test system: MCF7; test: cells; type: functional; details: Homo sapiens, time 48 hrs; remark: listed apart in the source
# Description: Inhibition of cell migration in human MCF7 cells assessed as reduction in cell migration at 2.5 uM measured for 48 hrs by wound healing assay based microscopic analysis (Rvb = 70.25%)
Structure (SMILES),Activity [1],inhibition (active/inactive call) [2],IC50 [3],IC50 [4],IC50 [5],topoisomerase II inhibition (active/inactive) [6],IC50 [7],Activity [8],viability at 10 µM [9],Activity [10],Activity [11],inhibition at 1 µM [12],Activity [13],inhibition at 2.5 µM [14]
CCn1c(SCC(=O)NO)nc2c([nH]c3ccccc32)c1=O,45.5%,Active,31.3 µM,15 µM,41.2 µM,,,,,,,,,
CCn1c(SCCCCCCC(=O)NO)nc2c([nH]c3ccccc32)c1=O,61.71%,Active,46.4 µM,21.8 µM,34.6 µM,,,,,,,,,
CCn1c(SCCCC(=O)NO)nc2c([nH]c3ccccc32)c1=O,46.33%,Active,17.4 µM,18.1 µM,> 80 µM,,,,,,,,,
O=C(/C=C/c1ccc(CSc2nc3[nH]ncc3c(=O)[nH]2)cc1)NO,39.04%,Active,15.8 µM,47.7 µM,21.5 µM,Active,,,,,,,,
O=C(/C=C/c1ccc(CSc2nc3c([nH]c4ccccc43)c(=O)[nH]2)cc1)NO,21.56%,Active,21.8 µM,30.3 µM,37.2 µM,,2.38 µM,,,,,,,
CCn1c(SC/C=C/C(=O)NO)nc2c([nH]c3ccccc32)c1=O,50.31%,Active,25.5 µM,23.3 µM,35.5 µM,,,,,,,,,
C/C(=N\O)c1ccc(NC(=O)CSc2nc3c([nH]c4ccccc43)c(=O)[nH]2)cc1,18.72%,Active,33.3 µM,37.2 µM,> 80 µM,Active,,,,,,,,
O=C(CCCCCCC(=O)Nc1ccccc1)NO [VORINOSTAT],14.98%,,1.58 µM,1.58 µM,,,,19.7%,44.7%,35.2%,0.41%,,,
O=C(CSc1nc2c([nH]c3ccccc32)c(=O)[nH]1)NO,38.47%,Active,> 80 µM,26.7 µM,> 80 µM,Active,,,,,,,,
O=C(CCCCCSc1nc2c([nH]c3ccccc32)c(=O)[nH]1)NO,65.7%,Active,27.6 µM,34.8 µM,28.6 µM,Active,2.58 µM,,,,,,,
CC[C@@]1(O)C(=O)OCc2c1cc1n(c2=O)Cc2cc3ccccc3nc2-1 [CAMPTOTHECIN],37.51%,,17.8 µM,18.2 µM,18.6 µM,,,,,,,,,
C/C(=N\O)c1ccc(NC(=O)CSc2nc3[nH]ncc3c(=O)[nH]2)cc1,41.36%,Active,42.5 µM,31.2 µM,46.4 µM,,,,,,,,,
O=C(CSc1nc2[nH]ncc2c(=O)[nH]1)NO,41.42%,Active,31.2 µM,23.5 µM,> 80 µM,Active,,,,,,,,
CCn1c(SCCC(=O)NO)nc2c([nH]c3ccccc32)c1=O,53.79%,Active,43.5 µM,18.2 µM,42.7 µM,,,,,,,,,
O=C(CCCSc1nc2c([nH]c3ccccc32)c(=O)[nH]1)NO,38.06%,Active,34.1 µM,54.2 µM,41.4 µM,Active,,,,,,,,
COc1cc([C@@H]2c3cc4c(cc3[C@@H](O[C@@H]3O[C@@H]5CO[C@@H](C)O[C@H]5[C@H](O)[C@H]3O)[C@H]3COC(=O)[C@H]23)OCO4)cc(OC)c1O [ETOPOSIDE],21.47%,,10.8 µM,22.9 µM,29.7 µM,,,2.48%,92.7%,4.41%,0.37%,64.7%,Active,47.1%
CCn1c(SCC(=O)Nc2ccc(/C(C)=N/O)cc2)nc2c([nH]c3ccccc32)c1=O,21.56%,Active,48.4 µM,30.3 µM,37.2 µM,Active,,,,,,,,
O=C(CCCSc1nc2[nH]ncc2c(=O)[nH]1)NO,32.15%,Active,27.5 µM,21.7 µM,20.4 µM,,,,,,,,,
O=C(CCCCSc1nc2[nH]ncc2c(=O)[nH]1)NO,24.26%,Active,40 µM,19.5 µM,18.9 µM,Active,,,,,,,,
CCn1c(SCCCCCC(=O)NO)nc2c([nH]c3ccccc32)c1=O,43.13%,Active,26 µM,19.6 µM,25.7 µM,,,,,,,,,
O=C(CCCCCSc1nc2[nH]ncc2c(=O)[nH]1)NO,20.31%,Active,25.8 µM,21.6 µM,15.5 µM,Active,,,,,,,,
O=C(/C=C/CSc1nc2c([nH]c3ccccc32)c(=O)[nH]1)NO,41.34%,Active,20.4 µM,21.9 µM,49.3 µM,Active,,,,,,,,
CCn1c(SCCCCCCCC(=O)NO)nc2c([nH]c3ccccc32)c1=O,43.12%,Active,36.4 µM,25.1 µM,19.6 µM,,,,,,,,,
O=C(CCSc1nc2c([nH]c3ccccc32)c(=O)[nH]1)NO,21.73%,Active,24.8 µM,28 µM,59.6 µM,Active,,,,,,,,
O=C(CCCCCCSc1nc2c([nH]c3ccccc32)c(=O)[nH]1)NO,53.49%,Active,19.9 µM,19.7 µM,25 µM,Active,,,,,,,,
O=C(CCSc1nc2[nH]ncc2c(=O)[nH]1)NO,48.81%,Active,19.1 µM,31.8 µM,22.6 µM,Active,,,,,,,,
C/C(=N/O)c1ccc(NC(=O)CCCSc2nc3[nH]ncc3c(=O)[nH]2)cc1,38.02%,Active,36.6 µM,44.7 µM,36.4 µM,,,,,,,,,
